Results reported in patent US7772241B2, “Variolin derivatives and their use as antitumor agents” (Pharma Mar S.A., priority 2001, dated 2010).

Key:
IGROV-ET = assay: Inhibition of cells growth by colorimetric (SRB) assay, IGROV-ET
Outline: (§1)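 Human tumour cells in RPMI 1640 with 10% FBS were seeded at 5×10^3 cells/well, allowed to attach for 18 h, then exposed to samples at 10 to 10^−8 μg/ml for 48 h. Growth was measured by SRB staining after TCA fixation, with absorbance read at 490 nm in triplicate wells.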

LoVo = assay: Inhibition of cells growth by colorimetric (SRB) assay, LoVo
Outline: as §1

A-549 = assay: Inhibition of cells growth by colorimetric (SRB) assay, A-549
Outline: as §1

SK-MEL-28 = assay: Inhibition of cells growth by colorimetric (SRB) assay, SK-MEL-28
Outline: as §1

PANC-1 = assay: Inhibition of cells growth by colorimetric (SRB) assay, PANC-1
Outline: as §1

IGROV-1 = assay: Inhibition of cells growth by colorimetric (SRB) assay, IGROV-1
Outline: as §1

HT-29 = assay: Inhibition of cells growth by colorimetric (SRB) assay, HT-29
Outline: as §1

DU-145 = assay: Inhibition of cells growth by colorimetric (SRB) assay, DU-145
Outline: as §1

LNCaP = assay: Inhibition of cells growth by colorimetric (SRB) assay, LNCaP
Outline: as §1

HeLa-APL = assay: Inhibition of cells growth by colorimetric (SRB) assay, HeLa-APL
Excerpt: (§2) The finality of these assays is to interrupt the growth of a “in vitro” tumor cell culture by means a continued exhibition of the cells to the sample to be testing.
(§3) This form of the assay employs 96 well cell culture microplates of 9 mm diameter (Faircloth, 1988; Mosmann, 1983). Most of the cell lines are obtained from American Type Culture Collection (ATCC) derived from different human cancer types.
(§4) Cells are maintained in RPMI 1640 10% FBS, supplemented with 0.1 g/l penicillin and 0.1 g/l streptomycin sulphate and then incubated at 37° C., 5% CO2 and 98% humidity. For the experiments, cells were harvested from subconfluent cultures using trypsin and resuspended in fresh medium before plating.
(§5) Cells are seeded in 96 well microtiter plates, at 5×10^3 cells per well in aliquots of 195 μl medium, and they are allowed to attach to the plate surface by growing in drug free medium for 18 hours. Afterward, samples are added in aliquots of 5 μl in a ranging from 10 to 10^−8 μg/ml, dissolved in DMSO/EtOH/PBS (0.5:0.5:99). After 48 hours exposure, the antitumor effect are measured by the SRB methodology: cells are fixed by adding 50 μl of cold 50% (wt/vol) trichloroacetic acid (TCA) and incubating for 60 minutes at 4° C. Plates are washed with deionized water and dried. One hundred μl of SRB solution (0.4% wt/vol in 1% acetic acid) is added to each microtiter well and incubated for 10 minutes at room temperature. Unbound SRB is removed by washing with 1% acetic acid. Plates are air dried and bound stain is solubilized with Tris buffer. Optical densities are read on a automated spectrophotometric plate reader at a single wavelength of 490 nm.
(§6) The values for mean +/−SD of data from triplicate wells are calculated. Some parameters for cellular responses can be calculated: GI=growth inhibition, TGI=total growth inhibition (cytostatic effect) and LC=cell killing (cytotoxic effect).

LoVo-Dox = assay: Inhibition of cells growth by colorimetric (SRB) assay, LoVo-Dox
Outline: as §1

K-562 = assay: Inhibition of cells growth by colorimetric (SRB) assay, K-562
Outline: as §1

SK-BR-3 = assay: Inhibition of cells growth by colorimetric (SRB) assay, SK-BR-3
Outline: as §1

HeLa = assay: Inhibition of cells growth by colorimetric (SRB) assay, HeLa
Excerpt: as §2, §3, §4, §5, §6

- GI50 (LoVo; Homo sapiens, LoVo, 48 h, read-out: LOVO GI50, SRB assay, 48 hours exposure): 984 nM
- GI50 (A-549; Homo sapiens, A549, 48 h, read-out: A-549 GI50, SRB assay, 48 hours exposure): 249 nM
- GI50 (SK-MEL-28; Homo sapiens, SK-MEL-28, 48 h, read-out: MEL-28 GI50, SRB assay, 48 hours exposure): 767 nM
- GI50 (PANC-1; Homo sapiens, PANC-1, 48 h, read-out: PANC-1 GI50, SRB assay, 48 hours exposure): 220 nM
- GI50 (HT-29; Homo sapiens, HT-29, 48 h, read-out: HT-29 GI50, SRB assay, 48 hours exposure): 176 nM
- GI50 (DU-145; Homo sapiens, DU-145, 48 h, read-out: DU-145 GI50, SRB assay, 48 hours exposure): 64.6 nM
- GI50 (LNCaP; Homo sapiens, LNCaP, 48 h, read-out: LN-caP GI50, SRB assay, 48 hours exposure): 127 nM
- GI50 (HeLa-APL; Homo sapiens, 48 h, read-out: HELA-APL GI50, SRB assay, 48 hours exposure): 4.67 nM
- GI50 (LoVo-Dox; Homo sapiens, 48 h, read-out: LOVO-DOX GI50, SRB assay, 48 hours exposure): 699 nM
- GI50 (K-562; Homo sapiens, K562, 48 h, read-out: K-562 GI50, SRB assay, 48 hours exposure): 898 nM
- GI50 (SK-BR-3; Homo sapiens, SK-BR-3, 48 h, read-out: SK-BR-3 GI50, SRB assay, 48 hours exposure): 326 nM
- GI50 (HeLa; Homo sapiens, HeLa, 48 h, read-out: HELA GI50, SRB assay, 48 hours exposure): 2.52 nM
Compound: CSc1nccc(-c2c3c(N)ccnc3n3c(N)nccc23)n1.Cl [Compound 93]
- GI50 (IGROV-ET; Homo sapiens, 48 h, read-out: IGROV-ET GI50, SRB assay, 48 hours exposure): 860 nM
- CC50 (IGROV-ET; Homo sapiens, 48 h, read-out: IGROV-ET LC50, SRB assay, 48 hours exposure): 2520 nM
- IGROV-ET TGI (IGROV-ET; SRB assay, 48 hours exposure): 2.09E−06
- CC50 (LoVo; Homo sapiens, LoVo, 48 h, read-out: LOVO LC50, SRB assay, 48 hours exposure): 17.4 µM
- LOVO TGI (LoVo; SRB assay, 48 hours exposure): 3.84E−06
- CC50 (A-549; Homo sapiens, A549, 48 h, read-out: A-549 LC50, SRB assay, 48 hours exposure): 5.98 µM
- A-549 TGI (A-549; SRB assay, 48 hours exposure): 9.34E−07
- CC50 (SK-MEL-28; Homo sapiens, SK-MEL-28, 48 h, read-out: MEL-28 LC50, SRB assay, 48 hours exposure): 10.7 µM
- MEL-28 TGI (SK-MEL-28; SRB assay, 48 hours exposure): 3.71E−06
- CC50 (PANC-1; Homo sapiens, PANC-1, 48 h, read-out: PANC-1 LC50, SRB assay, 48 hours exposure): 25.2 µM
- PANC-1 TGI (PANC-1; SRB assay, 48 hours exposure): 2.78E−06
- GI50 (IGROV-1; Homo sapiens, IGROV-1, 48 h, read-out: IGROV GI50, SRB assay, 48 hours exposure): 144 nM
- CC50 (IGROV-1; Homo sapiens, IGROV-1, 48 h, read-out: IGROV LC50, SRB assay, 48 hours exposure): 25.2 µM
- IGROV TGI (IGROV-1; SRB assay, 48 hours exposure): 8.76E−07
- CC50 (HT-29; Homo sapiens, HT-29, 48 h, read-out: HT-29 LC50, SRB assay, 48 hours exposure): 25.2 µM
- HT-29 TGI (HT-29; SRB assay, 48 hours exposure): 1.32E−06
- CC50 (DU-145; Homo sapiens, DU-145, 48 h, read-out: DU-145 LC50, SRB assay, 48 hours exposure): 2330 nM
- DU-145 TGI (DU-145; SRB assay, 48 hours exposure): 4.16E−07
- CC50 (LNCaP; Homo sapiens, LNCaP, 48 h, read-out: LN-caP LC50, SRB assay, 48 hours exposure): 1670 nM
- LN-caP TGI (LNCaP; SRB assay, 48 hours exposure): 3.68E−07
- CC50 (HeLa-APL; Homo sapiens, 48 h, read-out: HELA-APL LC50, SRB assay, 48 hours exposure): 29 nM
- HELA-APL TGI (HeLa-APL; SRB assay, 48 hours exposure): 6.03E−09
- CC50 (LoVo-Dox; Homo sapiens, 48 h, read-out: LOVO-DOX LC50, SRB assay, 48 hours exposure): 25.2 µM
- LOVO-DOX TGI (LoVo-Dox; SRB assay, 48 hours exposure): 1.68E−06
- CC50 (K-562; Homo sapiens, K562, 48 h, read-out: K-562 LC50, SRB assay, 48 hours exposure): 25.2 µM
- K-562 TGI (K-562; SRB assay, 48 hours exposure): 1.57E−06
- CC50 (SK-BR-3; Homo sapiens, SK-BR-3, 48 h, read-out: SK-BR-3 LC50, SRB assay, 48 hours exposure): 15.6 µM
- SK-BR-3 TGI (SK-BR-3; SRB assay, 48 hours exposure): 1.59E−06
- HELA TGI (HeLa; SRB assay, 48 hours exposure): 5.10E−09
